US20060079493A1, “Methods for treating genetically- defined proliferative disorders with hsp90 inhibitors” (priority 2001, published 2006)
Like-named read-outs stand apart in the source and are kept apart here.

Assays:
K562 cells = test: MTS assay, cytotoxicity (growth inhibition) on K562; format: cell-based, human; conditions: for Metabolic Activity K562: MTS, 3-6 days, DMSO control = 100%
Experimental: The cell line is widely available, e.g., from American Type Culture Collection (“ATCC”; Manassas, Va., USA; cat# CCL-243) and can be propogated in a variety of media, e.g., ATCC's Iscove's modified Dulbecco's medium with 4 mM L-glutamine adjusted to contain 1.5 g/L sodium bicarbonate, 90%; fetal bovine serum, 10%; 37C.
(§1) To K562 cells (suspension grown in DMEM media supplemented w/10% Fetal Bovine Serum (FBS) and 1 mM HEPES; subcultured biweekly at 100K cells/ml) in a 96 well plate (0.1 ml medium; 2000 cells per well) were added various concentrations of 17-AAG (CF7) and the effects measured over a period of 3-6 days using an MTS assay protocol similar to that offered by Promega Corp (Madison, Wis., US; cat# G5421).
(§2) The MTS assay is a colorimetric assay for determining the number of viable cells in proliferation, cytotoxicity or chemosensitivity assays. The CellTiter 96® AQueous Assay is composed of solutions of tetrazolium compound (3-(4,5-dimethylthiazol-2-yl)-5-(3-carboxymethoxyphenyl)-2-(4-sulfophenyl)-2H-tetrazolium, inner salt; MTS) and an electron coupling reagent (phenazine methosulfate) PMS. MTS is bioreduced by cells into a formazan that is soluble in tissue culture medium. Barltrop et al. (1991) Bioorg. & Med. Chem. Lett. 1, 611. The absorbance of the formazan at 490 nm can be measured directly from 96 well assay plates without additional processing. Cory et al. (1991) Cancer Commun. 3, 207; Riss, T. L. and Moravec, R. A. (1992) Mol. Biol. Cell 3 (Suppl.), 184a. The conversion of MTS into the aqueous soluble formazan is accomplished by dehydrogenase enzymes found in metabolically active cells. The quantity of formazan product as measured by the amount of 490 nm absorbance is directly proportional to the number of living cells in culture.
(§3) Using the MTS assay, cytotoxicity (defined as “growth inhibition” and not necessarily versus renal proximal tubular […] cells (normal cells) was determined as shown in the following Tables. “Sem” refers to standard error of the mean, which is calculated as the standard deviation divided by the square root of the sample size; the numbers reflect triplicate replicates. Dilutions of the compounds were prepared in DMSO and straight DMSO was used as a control corresponding to 100% metabolic activity.

RPTEC = test: MTS assay, cytotoxicity (growth inhibition) on normal cells RPTEC; format: cell-based; conditions: for Metabolic Activity RPTEC: MTS, 3-6 days, DMSO control = 100%; for IC50: read-out: RPTEC IC50
Experimental: as §1, §2, §3

[1] = tested on: bcr-abl expressing leukemia cell lines; conditions: average of six cell lines; read-out: IC50 averaged in six bcr-abl expressing leukemia cell lines; cited from earlier work
[2] = tested on: bcr-abl-negative leukemia lines; conditions: mean of four cell lines; read-out: mean IC50 in a panel of four bcr-abl-negative leukemia lines; cited from earlier work
[3] = Homo sapiens, K562, read-out: K562 IC50
[4] = separate study, compared with compound 237

Structure (SMILES): C=CCNC1=C2C[C@@H](C)C[C@H](OC)[C@H](O)[C@@H](C)/C=C(\C)[C@H](OC(N)=O)[C@@H](OC)/C=C\C=C(/C)C(=O)NC(=CC1=O)C2=O [CF7, 17-allylamino-17-demethoxygeldanamycin]
- Metabolic Activity K562 (K562 cells; 0.0003 uM): 88.00%
- Metabolic Activity K562 (K562 cells; 0.0010 uM): 83.81%
- Metabolic Activity K562 (K562 cells; 0.0030 uM): 83.00%
- Metabolic Activity K562 (K562 cells; 0.0100 uM): 85.94%
- Metabolic Activity K562 (K562 cells; 0.0300 uM): 80.12%
- Metabolic Activity K562 (K562 cells; 0.1000 uM): 44.06%
- Metabolic Activity K562 (K562 cells; 0.3000 uM): 14.40%
- Metabolic Activity K562 (K562 cells; 1.0000 uM): 9.51%
- Metabolic Activity K562 (K562 cells; 3.0000 uM): 8.12%
- Metabolic Activity K562 (K562 cells; 10.0000 uM): 7.89%
- IC50 (K562 cells; bcr-abl fusion protein cancer line, MTS assay, read-out: K562 IC50): 70 nM
- Metabolic Activity RPTEC (RPTEC; 0.0003 uM): 98.69%
- Metabolic Activity RPTEC (RPTEC; 0.0010 uM): 92.26%
- Metabolic Activity RPTEC (RPTEC; 0.0030 uM): 92.73%
- Metabolic Activity RPTEC (RPTEC; 0.0100 uM): 91.81%
- Metabolic Activity RPTEC (RPTEC; 0.0300 uM): 86.40%
- Metabolic Activity RPTEC (RPTEC; 0.1000 uM): 86.46%
- Metabolic Activity RPTEC (RPTEC; 0.3000 uM): 58.03%
- Metabolic Activity RPTEC (RPTEC; 1.0000 uM): 34.01%
- Metabolic Activity RPTEC (RPTEC; 3.0000 uM): 22.01%
- Metabolic Activity RPTEC (RPTEC; 10.0000 uM): 20.10%
- IC50 (RPTEC; normal cells, MTS assay): 400 nM

Structure (SMILES): COC1/C=C\C=C(/C)C(=O)NC2=CC(=O)C(NCCCN(C)CCCNC3=C4CC(C)CC(OC)C(O)C(C)/C=C(\C)C(OC(N)=O)C(OC)/C=C\C=C(/C)C(=O)NC(=CC3=O)C4=O)=C(CC(C)CC(OC)C(O)C(C)/C=C(\C)C1OC(N)=O)C2=O (stereo not shown) [Compound 208]
- IC50 (K562 cells; [3]): 50 nM
- IC50 (RPTEC; Homo sapiens, RPTEC): 1000 nM

Structure (SMILES): COC1/C=C\C=C(/C)C(=O)NC2=CC(=O)C(NCCCNCCCNC3=C4CC(C)CC(OC)C(O)C(C)/C=C(\C)C(OC(N)=O)C(OC)/C=C\C=C(/C)C(=O)NC(=CC3=O)C4=O)=C(CC(C)CC(OC)C(O)C(C)/C=C(\C)C1OC(N)=O)C2=O (stereo not shown) [Compound 237]
- IC50 (K562 cells; [3]): 100 nM
- IC50 (RPTEC; Homo sapiens, RPTEC): 4000 nM

Structure (SMILES): CCCNC/C=C/CNC1=C2CC(C)CC(OC)C(O)C(C)/C=C(\C)C(OC(N)=O)C(OC)/C=C\C=C(/C)C(=O)NC(=CC1=O)C2=O (stereo not shown) [Compound 481]
- IC50 (K562 cells; [3]): 400 nM
- IC50 (RPTEC; Homo sapiens, RPTEC): 4000 nM

Structure (SMILES): COC1/C=C\C=C(/C)C(=O)NC2=CC(=O)C(NCCN(C)CCNC3=C4CC(C)CC(OC)C(O)C(C)/C=C(\C)C(OC(N)=O)C(OC)/C=C\C=C(/C)C(=O)NC(=CC3=O)C4=O)=C(CC(C)CC(OC)C(O)C(C)/C=C(\C)C1OC(N)=O)C2=O (stereo not shown) [Compound 483]
- IC50 (K562 cells; Homo sapiens, K562, bcr-abl fusion protein cancer line, MTS assay, read-out: K562 IC50): 70 nM
- IC50 (RPTEC; Homo sapiens, RPTEC): 1000 nM

Structure (SMILES): CO[C@H]1[C@@H](OC)C[C@H](C)[C@@H](OC)C2=CC(=O)C=C(NC(=O)/C(C)=C/C=C\[C@H](OC)[C@@H](OC(N)=O)/C(C)=C/[C@@H]1C)C2=O [herbimycin A]
- IC50 [1]: 29.3 nM
- IC50 [2]: 399 nM

Structure (SMILES): C[C@@H]1C[C@H]2O[C@@H]2/C=C\C=C\C(=O)Cc2c(Cl)c(O)cc(O)c2C(=O)O1 [radicicol]
- effect on K562 (separate study) (K562 cells; [4]): approximating those obtained for compound 237
- effect on RPTEC (separate study) (RPTEC; [4]): approximating those obtained for compound 237
